Biological target: T1, human SGLT2 (Homo sapiens, UniProt P31639)
T1 sequence (P31639 1-672): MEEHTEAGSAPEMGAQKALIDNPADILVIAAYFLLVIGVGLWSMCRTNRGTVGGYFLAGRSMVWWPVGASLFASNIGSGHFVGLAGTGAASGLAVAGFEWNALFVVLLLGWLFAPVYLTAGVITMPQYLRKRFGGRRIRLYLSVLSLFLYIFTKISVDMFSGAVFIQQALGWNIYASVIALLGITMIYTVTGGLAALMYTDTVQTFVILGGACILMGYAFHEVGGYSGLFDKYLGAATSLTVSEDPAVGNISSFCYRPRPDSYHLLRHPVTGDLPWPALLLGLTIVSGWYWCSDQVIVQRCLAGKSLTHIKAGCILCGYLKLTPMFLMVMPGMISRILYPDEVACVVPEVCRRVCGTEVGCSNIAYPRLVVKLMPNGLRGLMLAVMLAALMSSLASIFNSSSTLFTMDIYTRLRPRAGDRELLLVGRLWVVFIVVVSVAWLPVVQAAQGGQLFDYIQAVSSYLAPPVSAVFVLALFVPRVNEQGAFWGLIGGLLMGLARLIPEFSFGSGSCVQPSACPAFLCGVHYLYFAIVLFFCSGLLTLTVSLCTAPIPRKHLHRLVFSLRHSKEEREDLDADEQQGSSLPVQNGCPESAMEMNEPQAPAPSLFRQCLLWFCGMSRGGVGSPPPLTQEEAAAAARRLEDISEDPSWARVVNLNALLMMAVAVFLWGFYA
Experiment: Sodium-dependent 14C-AMG uptake in CHO-K1 cells expressing human SGLT2
Type: cell-based
Conditions: n = 10
Description: The cDNA encoding human SGLT1 (slc5a1, NM_000343), human SGLT2 (slc5a2, NM_003041) and mouse SGLT1 (slc5a1, NM_019810.4) are purchased from Openbiosystems, Invitrogen and Openbiosystems, respectively. The cDNA is cloned into pcDNA3.1+ for mammalian expression and is stably transfected into Chinese hamster ovary (CHO)-K1 cells using standard mammalian transfection procedures. An SGLT-expressing sub-clone of each over-expressing cell line is selected based on resistance to neomycin (Geneticin, Invitrogen) and activity in the ^14C-α-methyl-D-glucopyranoside (^14C-AMG) uptake assay (see below). Stable SGLT-expressing cells are maintained using standard cell culture techniques.
The SGLT activity is measured as sodium-dependent ^14C-AMG uptake in the above cell lines described as follows. One hundred μL of culture medium containing 30,000 cells are seeded to each well of a 96-well BioCoat poly-D-lysine plate (Becton Dickson) and cultured at 37° C. overnight. The culture medium is aspirated and cells are washed twice with 200 μL of Reaction Buffer (140 mM NaCl, 2 mM KCl, 1 mM CaCl2, MgCl2, and 14 mM N-2-hydroethylpiperrazine-N′-2-ethanesulfonic acid (Hepes), pH 7.5). The excess buffer is tapped out onto paper towels. Thirty-five μL of Reaction Buffer are added to each well. […] After mixing, the scintillation signal in the plate is counted in a MicroBeta (PerkinElmer). […]

**Q.** How did the IC50 turn out when `Cc1cc(/C=C/CCN2CCCC3(CCNCC3)C2)ccc1Cc1c(O[C@@H]2O[C@H](CO)[C@@H](O)[C@H](O)[C@H]2O)n[nH]c1C(C)C` [Example 1 (free base), 4-{4-[(1E)-4-(2,9-diazaspiro[5.5]undec-2-yl)but-1-en-1-yl]-2-methylbenzyl}-5-(propan-2-yl)-1H-pyrazol-3-yl beta-D-glucopyranoside] was run?
**A.** 6.1 ± 1.2 µM
